Experimental data taken from publication PMC9481570, “A small molecule antagonist of SMN disrupts the interaction between SMN and RNAP II” (Nature Communications, 2022).
“And” between values parts separate entries of the source, which are not always exact repeats. Identical values can stand only once.

How the values were obtained:
Test in all cases: Affinity-purification and mass spectrometry (AP-MS) chemical proteomics, all proteins;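 as to Difference: 200 µM free competitor with 20 µM biotin probe overnight in lysate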
Format in all cases: binding
[1] = biological target: T1, proteins displaced from immobilized biotin-Cmpd 1 pulldowns (U2OS cell lysate) (Homo sapiens, UniProt P46783); conditions: GN=RPS10 (P46783)
T1 construct: endogenous in cells; host or cells: U2OS

[2] = biological target: T2, proteins displaced from immobilized biotin-Cmpd 1 pulldowns (U2OS cell lysate) (Homo sapiens, UniProt P60174); conditions: GN=TPI1 (P60174)
T2 construct: endogenous in cells; host or cells: U2OS

[3] = biological target: T3, proteins displaced from immobilized biotin-Cmpd 1 pulldowns (U2OS cell lysate) (Homo sapiens, UniProt P06748); conditions: GN=NPM1 (P06748)
T3 construct: endogenous in cells; host or cells: U2OS
T3 sequence (P06748 whole entry): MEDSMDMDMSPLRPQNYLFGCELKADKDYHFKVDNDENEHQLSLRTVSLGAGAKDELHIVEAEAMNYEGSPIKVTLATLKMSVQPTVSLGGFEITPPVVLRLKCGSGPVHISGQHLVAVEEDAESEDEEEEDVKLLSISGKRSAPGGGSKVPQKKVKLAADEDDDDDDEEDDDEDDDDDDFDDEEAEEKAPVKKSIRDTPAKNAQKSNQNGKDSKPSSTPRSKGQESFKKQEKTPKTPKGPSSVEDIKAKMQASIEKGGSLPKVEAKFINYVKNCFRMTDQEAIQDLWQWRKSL

[4] = biological target: T4, proteins displaced from immobilized biotin-Cmpd 1 pulldowns (U2OS cell lysate) (Homo sapiens, UniProt Q9NZM5); conditions: GN=NOP53 (Q9NZM5)
T4 construct: endogenous in cells; host or cells: U2OS

[5] = biological target: T5, proteins displaced from immobilized biotin-Cmpd 1 pulldowns (U2OS cell lysate) (Homo sapiens, UniProt Q6UWP8); conditions: GN=SBSN (Q6UWP8)
T5 construct: endogenous in cells; host or cells: U2OS
T5 sequence (Q6UWP8 26-590): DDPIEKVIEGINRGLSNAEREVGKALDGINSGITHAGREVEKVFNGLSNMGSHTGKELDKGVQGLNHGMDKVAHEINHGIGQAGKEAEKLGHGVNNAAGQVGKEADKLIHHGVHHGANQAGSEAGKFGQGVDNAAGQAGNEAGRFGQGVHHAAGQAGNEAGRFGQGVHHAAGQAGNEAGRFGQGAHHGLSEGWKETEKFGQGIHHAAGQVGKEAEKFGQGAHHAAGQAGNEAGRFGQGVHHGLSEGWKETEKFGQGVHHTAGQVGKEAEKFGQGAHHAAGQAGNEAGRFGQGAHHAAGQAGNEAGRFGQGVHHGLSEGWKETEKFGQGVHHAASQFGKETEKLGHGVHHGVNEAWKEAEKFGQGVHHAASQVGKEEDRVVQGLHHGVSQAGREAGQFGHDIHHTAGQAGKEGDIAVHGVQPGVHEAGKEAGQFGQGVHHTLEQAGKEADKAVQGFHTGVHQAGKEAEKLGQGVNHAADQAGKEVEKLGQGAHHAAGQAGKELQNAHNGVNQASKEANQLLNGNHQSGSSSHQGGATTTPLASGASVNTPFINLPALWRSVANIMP

[6] = biological target: T6, proteins displaced from immobilized biotin-Cmpd 1 pulldowns (U2OS cell lysate) (Homo sapiens, UniProt Q9BVJ6); conditions: GN=UTP14A (Q9BVJ6)
T6 construct: endogenous in cells; host or cells: U2OS
T6 sequence (Q9BVJ6 whole entry): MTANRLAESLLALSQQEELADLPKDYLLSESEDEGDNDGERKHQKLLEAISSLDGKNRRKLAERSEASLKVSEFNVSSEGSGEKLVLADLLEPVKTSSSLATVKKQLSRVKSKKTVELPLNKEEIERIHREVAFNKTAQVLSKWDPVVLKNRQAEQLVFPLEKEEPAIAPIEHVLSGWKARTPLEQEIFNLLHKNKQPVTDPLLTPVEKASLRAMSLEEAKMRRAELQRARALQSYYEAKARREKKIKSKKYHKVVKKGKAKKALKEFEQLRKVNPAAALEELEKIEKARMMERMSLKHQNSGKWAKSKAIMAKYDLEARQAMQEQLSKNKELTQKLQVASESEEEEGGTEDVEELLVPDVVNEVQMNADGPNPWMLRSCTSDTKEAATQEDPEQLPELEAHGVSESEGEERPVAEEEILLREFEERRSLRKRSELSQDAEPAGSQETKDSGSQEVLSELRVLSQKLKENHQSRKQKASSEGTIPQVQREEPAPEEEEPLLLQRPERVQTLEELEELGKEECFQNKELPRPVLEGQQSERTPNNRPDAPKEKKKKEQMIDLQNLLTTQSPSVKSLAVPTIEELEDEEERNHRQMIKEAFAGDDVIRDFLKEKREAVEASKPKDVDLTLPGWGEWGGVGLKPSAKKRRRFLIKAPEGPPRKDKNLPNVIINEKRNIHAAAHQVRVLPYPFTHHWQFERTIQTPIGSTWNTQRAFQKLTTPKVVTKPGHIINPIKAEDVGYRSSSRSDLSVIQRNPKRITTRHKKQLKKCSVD

[7] = biological target: T7, proteins displaced from immobilized biotin-Cmpd 1 pulldowns (U2OS cell lysate) (Homo sapiens, UniProt Q14980); conditions: GN=NUMA1 (Q14980)
T7 construct: endogenous in cells; host or cells: U2OS
T7 sequence (Q14980 whole entry): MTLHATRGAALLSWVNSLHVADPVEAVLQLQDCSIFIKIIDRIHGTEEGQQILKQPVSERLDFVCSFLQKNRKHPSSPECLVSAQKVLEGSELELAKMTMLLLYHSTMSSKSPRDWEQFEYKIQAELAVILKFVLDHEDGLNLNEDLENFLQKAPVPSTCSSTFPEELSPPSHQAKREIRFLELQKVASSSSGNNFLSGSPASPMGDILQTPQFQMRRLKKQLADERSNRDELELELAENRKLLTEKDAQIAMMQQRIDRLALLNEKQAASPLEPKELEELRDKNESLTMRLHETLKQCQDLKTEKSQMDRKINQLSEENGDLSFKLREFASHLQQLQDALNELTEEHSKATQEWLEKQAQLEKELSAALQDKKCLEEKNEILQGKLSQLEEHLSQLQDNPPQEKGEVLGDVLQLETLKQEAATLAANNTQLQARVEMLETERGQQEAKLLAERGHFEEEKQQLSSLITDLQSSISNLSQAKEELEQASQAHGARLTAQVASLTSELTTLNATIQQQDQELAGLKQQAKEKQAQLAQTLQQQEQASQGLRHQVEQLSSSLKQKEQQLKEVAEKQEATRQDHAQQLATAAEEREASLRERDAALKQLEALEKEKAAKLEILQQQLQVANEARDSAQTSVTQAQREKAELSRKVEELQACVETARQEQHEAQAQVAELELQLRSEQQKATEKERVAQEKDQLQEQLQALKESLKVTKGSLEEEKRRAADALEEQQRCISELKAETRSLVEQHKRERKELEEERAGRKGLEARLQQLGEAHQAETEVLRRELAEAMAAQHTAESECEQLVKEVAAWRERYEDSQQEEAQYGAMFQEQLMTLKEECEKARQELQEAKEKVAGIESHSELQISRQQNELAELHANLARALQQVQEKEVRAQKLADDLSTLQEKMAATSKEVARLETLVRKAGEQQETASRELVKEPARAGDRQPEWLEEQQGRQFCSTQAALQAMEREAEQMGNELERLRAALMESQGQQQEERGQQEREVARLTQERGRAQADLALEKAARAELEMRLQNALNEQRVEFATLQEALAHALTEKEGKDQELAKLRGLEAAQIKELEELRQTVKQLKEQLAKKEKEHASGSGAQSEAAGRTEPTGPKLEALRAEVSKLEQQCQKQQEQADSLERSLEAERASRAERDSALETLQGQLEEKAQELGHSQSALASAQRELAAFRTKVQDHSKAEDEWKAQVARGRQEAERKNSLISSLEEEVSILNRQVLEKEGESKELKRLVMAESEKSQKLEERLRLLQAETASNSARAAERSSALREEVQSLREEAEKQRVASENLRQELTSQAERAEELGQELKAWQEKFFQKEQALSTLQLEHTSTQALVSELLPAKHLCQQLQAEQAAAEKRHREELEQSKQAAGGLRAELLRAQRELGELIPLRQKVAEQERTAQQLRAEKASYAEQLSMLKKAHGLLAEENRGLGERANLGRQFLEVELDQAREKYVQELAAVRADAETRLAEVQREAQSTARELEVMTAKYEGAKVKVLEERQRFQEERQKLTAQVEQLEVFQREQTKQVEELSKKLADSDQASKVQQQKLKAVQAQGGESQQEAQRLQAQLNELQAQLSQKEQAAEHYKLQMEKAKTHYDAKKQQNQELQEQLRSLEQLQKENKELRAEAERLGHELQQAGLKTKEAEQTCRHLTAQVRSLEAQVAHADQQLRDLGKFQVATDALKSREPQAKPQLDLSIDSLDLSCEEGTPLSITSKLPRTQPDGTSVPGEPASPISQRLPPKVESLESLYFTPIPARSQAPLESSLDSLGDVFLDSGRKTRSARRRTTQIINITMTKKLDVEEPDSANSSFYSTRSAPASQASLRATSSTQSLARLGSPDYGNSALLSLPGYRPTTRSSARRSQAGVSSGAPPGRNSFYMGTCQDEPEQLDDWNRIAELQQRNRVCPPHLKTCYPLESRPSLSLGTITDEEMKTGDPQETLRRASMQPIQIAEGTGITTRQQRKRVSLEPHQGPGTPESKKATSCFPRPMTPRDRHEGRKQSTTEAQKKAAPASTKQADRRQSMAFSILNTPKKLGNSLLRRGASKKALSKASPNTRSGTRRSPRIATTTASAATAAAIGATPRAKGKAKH

[8] = biological target: T8, proteins displaced from immobilized biotin-Cmpd 1 pulldowns (U2OS cell lysate) (Homo sapiens, UniProt Q9UN81); conditions: GN=L1RE1 (Q9UN81)
T8 construct: endogenous in cells; host or cells: U2OS
T8 sequence (Q9UN81 whole entry): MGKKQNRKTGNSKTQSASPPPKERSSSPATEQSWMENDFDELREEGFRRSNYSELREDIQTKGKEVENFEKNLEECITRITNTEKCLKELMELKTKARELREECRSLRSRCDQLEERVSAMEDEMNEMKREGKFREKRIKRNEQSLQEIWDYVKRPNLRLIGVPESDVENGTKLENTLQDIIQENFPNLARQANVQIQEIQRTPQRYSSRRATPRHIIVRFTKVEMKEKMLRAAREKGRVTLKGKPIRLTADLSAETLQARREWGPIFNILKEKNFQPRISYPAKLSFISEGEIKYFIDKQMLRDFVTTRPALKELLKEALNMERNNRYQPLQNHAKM

[9] = biological target: T9, proteins displaced from immobilized biotin-Cmpd 1 pulldowns (U2OS cell lysate) (Homo sapiens, UniProt P54098); conditions: GN=POLG (P54098)
T9 construct: endogenous in cells; host or cells: U2OS

[10] = biological target: T10, proteins displaced from immobilized biotin-Cmpd 1 pulldowns (U2OS cell lysate) (Homo sapiens, UniProt Q7Z2W4); conditions: GN=ZC3HAV1 (Q7Z2W4)
T10 construct: endogenous in cells; host or cells: U2OS
T10 sequence (Q7Z2W4 whole entry): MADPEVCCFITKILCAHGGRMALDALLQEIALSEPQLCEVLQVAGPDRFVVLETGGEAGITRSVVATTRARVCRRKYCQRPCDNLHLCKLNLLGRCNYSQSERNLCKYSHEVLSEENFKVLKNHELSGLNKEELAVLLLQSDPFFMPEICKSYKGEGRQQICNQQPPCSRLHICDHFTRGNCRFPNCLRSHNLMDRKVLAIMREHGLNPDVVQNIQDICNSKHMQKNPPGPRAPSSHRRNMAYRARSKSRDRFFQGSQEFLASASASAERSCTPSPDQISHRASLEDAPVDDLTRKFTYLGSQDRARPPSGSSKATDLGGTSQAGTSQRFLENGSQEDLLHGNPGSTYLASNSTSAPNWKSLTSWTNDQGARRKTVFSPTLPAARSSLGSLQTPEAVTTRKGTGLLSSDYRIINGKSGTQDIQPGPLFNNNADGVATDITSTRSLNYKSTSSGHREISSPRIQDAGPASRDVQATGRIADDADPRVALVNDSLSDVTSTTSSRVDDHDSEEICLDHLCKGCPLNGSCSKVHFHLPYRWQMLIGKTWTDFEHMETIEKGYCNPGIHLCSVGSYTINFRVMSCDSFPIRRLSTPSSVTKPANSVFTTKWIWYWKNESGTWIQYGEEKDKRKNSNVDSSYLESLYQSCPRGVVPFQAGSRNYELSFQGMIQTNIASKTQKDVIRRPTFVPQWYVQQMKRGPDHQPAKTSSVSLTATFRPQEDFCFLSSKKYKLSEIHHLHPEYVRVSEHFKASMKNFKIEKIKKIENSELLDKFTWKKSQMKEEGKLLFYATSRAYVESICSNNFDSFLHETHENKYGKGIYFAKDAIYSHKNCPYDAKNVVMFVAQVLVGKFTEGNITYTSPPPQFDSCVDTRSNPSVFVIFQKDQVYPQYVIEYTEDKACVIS

## Cn1c2c(c(=N)c3c1CCC3)CCC2 [Compound 1, 4-methyl-2,3,4,5,6,7-hexahydrodicyclopenta[b,e]pyridin-8(1H)-imine]
[1]; Cmpd minus DMSO, -LOG(P-value) 0.711634
  Difference: 0.8419
[1]; replicates 1-3
  iBAQ Cmpd: 20.3934 and 20.6157 and 19.9486
[2]; Cmpd minus DMSO, -LOG(P-value) 0.713184
  Difference: -0.9556
[2]; replicates 1-3
  iBAQ Cmpd: 17.6148 and 17.9108 and 16.6151
[3]; Cmpd minus DMSO, -LOG(P-value) 0.76043
  Difference: -0.4033
[3]; replicates 1-3
  iBAQ Cmpd: 27.3171 and 27.18 and 26.7127
[4]; Cmpd minus DMSO, -LOG(P-value) 0.867991
  Difference: 2.66
[4]; replicates 1-3
  iBAQ Cmpd: 18.4766 and 17.8155 and 17.9258
[5]; Cmpd minus DMSO, -LOG(P-value) 0.819941
  Difference: -1.912
[5]; replicates 1-3
  iBAQ Cmpd: 15.6356 and 17.305 and 16.0247
[6]; Cmpd minus DMSO, -LOG(P-value) 0.846922
  Difference: 1.578
[6]; replicates 1-3
  iBAQ Cmpd: 17.3529 and 17.1229 and 16.9849
[7]; Cmpd minus DMSO, -LOG(P-value) 0.722853
  Difference: 1.264
[7]; replicates 1-3
  iBAQ Cmpd: 20.9325 and 19.3521 and 19.3092
[8]; Cmpd minus DMSO, -LOG(P-value) 0.981964
  Difference: 1.653
[8]; replicates 1-3
  iBAQ Cmpd: 17.9091 and 17.4238 and 17.5156
[9]; Cmpd minus DMSO, -LOG(P-value) 0.92162
  Difference: 0.489
[9]; replicates 1-3
  iBAQ Cmpd: 17.0695 and 17.0761 and 17.6776
[10]; Cmpd minus DMSO, -LOG(P-value) 1.54428
  Difference: 1.228
[10]; replicates 1-3
  iBAQ Cmpd: 18.1805 and 17.0719 and 17.7662
